# Measured values reported in patent US20260335388A1, “COMBINATION THERAPIES WITH ONCOLYTIC ADENOVIRUS AND TOPOISOMERASE I INHIBITORS OR PRODRUGS THEREOF” (priority 2022, published 2026).
# Read-outs that look alike come from different tables or passages of the source.
# Key:
# [1] = tested on: HSJD-RBT-2 retinoblastoma cells; assay: Antiproliferative activity (MTS), HSJD-RBT-2; format: cell-based; details: Homo sapiens
# [2] = tested on: HSJD-RBT-7 retinoblastoma cells; assay: cells; format: cell-based; details: Homo sapiens
# [3] = tested on: HSJD-RBVS-10 retinoblastoma cells; assay: cells; format: cell-based; details: Homo sapiens
# Y79 cells [4] = assay: Viability of Y79 cells by treatment sequence; format: cell-based
# Description: To address the sequence of the treatments on cell viability and apoptosis markers, topotecan (2 μM) and VCN-01 at 50 MOI (concentration sufficient to achieve viral protein transduction at early time points) was incubated with the sequence “topotecan first” (three days before VCN-01) or “VCN-01 first” (three days before topotecan). The experiments were controlled by adding culture medium instead of the second treatment.
# E1a [5] = format: cell-based
# HSJD-RBT-7 tumors = format: in vivo, mouse; details: systemic drug after intratumoral VCN-01 3×10E^9 vp/tumor; 5 days (FIG. 3)
# E1A [6] = format: in vivo, mouse
# E2F-1, p21 and cyclin E1 = format: cell-based
# E2F-1 = E2F-1 immunostaining in intraocular Y79 tumors; format: in vivo, mouse; details: mice with intraocular Y79 tumors, vs untreated (FIG. 17E)
# CDKN1A = format: cell-based, human; details: RBT-7 cells pre-infected with VCN-01; topotecan 2 μM (FIG. 17F)
# Description: To assess the expression of genes involved in the cell cycle, 6-well culture plates containing 2×10^6 retinoblastoma cells were used. VCN-01 was added at 50 MOI for 48 h, followed by the addition of topotecan (2 μM), […] (12.5 μM) or culture medium. The cell pellets were collected 24 h later. The samples were plated in the TaqMan® Array of Human Cyclins & Cell Cycle Regulation (Thermo Fisher Scientific). This array contains 92 assays of cell cycle-associated genes and assays of GAPDH, 18S, HPRT1 and GUSB as endogenous control genes. the threshold cycle (Ct) value ≥35 was established as absence of expression. The mean expression value of the controls was used to normalize gene expression values. The thresholds for upregulation and downregulation were 2^−ΔΔCt≥2.0 and 2^−ΔΔct≤0.5, respectively (Livak and Schmittgen, “Analysis of relative gene expression data using real-time quantitative PCR and the 2 (−Delta Delta C(T)) Method,” Methods 2001; 25(4):402-8).
# SYBR primers were CDKN1A (Forward 5′-GGACAGGAGAGGAAGACCATGT-3′ (SEQ ID NO: 15), Reverse 5′-TGGAGTGGTAGAATTCTGTCATGC-3′ (SEQ ID NO: 16) and CDK6 (Forward 5′-CCAGGCAGGCTTTTCATTCA-3′ (SEQ ID NO: 17), Reverse 5′-AGGTCCTGGAAGTATGGGTG-3′ (SEQ ID NO: 18).
# Y79 cells [7] = assay: Viral production assay; format: cell-based; details: Y79 pre-infected with 500 MOI; topotecan 2 μM (FIG. 18F)
# Description: Viral production assay. Y79 cells were infected with a concentration of 500 multiplicity of infection (MOI; i.e., transducing units of virus per cell), which was sufficient to achieve 80% to 100% infectivity. After 4 h, the cells were washed three times with PBS, fresh medium was added, and the cells were incubated with or without topotecan (2 μM). At time points 30, 48 and 72 h post-infection, the cell pellets were collected and exposed to three rounds of freeze-thaw lysis. Viral titers were determined in the pellets in triplicate, following an anti-hexon staining-based method in HEK293 cells (Cascallo et al., 2007).
# [8] = tested on: RBT-7 intracerebral tumors; assay: Antitumor activity in CNS-disseminated retinoblastoma; format: in vivo, mouse; details: control 22 days; P of combination vs control 0.0004, topotecan 0.0072, standard of care 0.0040, VCN-01 0.0372; animals dying of toxicity excluded (FIG. 22C)
# Text: Antitumor activity in CNS-disseminated retinoblastoma. A model of retinoblastoma dissemination was established in the leptomeninges of the CNS. Anesthetized mice were restrained in a stereotactic apparatus (Stoelting, Wood Dale, IL, USA). Using a mouse brain atlas (Paxinos and Franklin, “The mouse brain in stereotaxic coordinates,” San Diego: Academic Press; 2001), the coordinates of the fourth ventricle were located and the surface of the skull was drilled. Then, […] (RBT-7) in 10 µL matrigel was injected with a dull 22G needle attached to a 50 µL syringe (Hamilton, Bonaduz, Switzerland). One week later, treatments were started with VCN-01 (3×10^9 vp in 20 µL vehicle, intraventricular, day 8), topotecan (0.6 mg/kg, i.p., days 8-12), SoC chemotherapy ([…], 40 mg/kg, i.p., day 8, and etoposide, 6 mg/kg, i.p., days 8-10) or the combination of VCN-01 and chemotherapies. The control group received the vehicle of VCN-01 (intraventricular). Animals achieved experimental endpoints upon deterioration of condition or 20% weight loss. Brains collected at endpoint were embedded in paraffin and stained with hematoxylin and eosin (H&E), human nuclei (MAB4383, 1:200, Millipore), viral protein E1A (ab33183, 1:200, Abcam) and CD45 (leukocyte common antigen; 70257, 1:200, Cell Signaling).
# [9] = tested on: RBT-7 intracerebral tumors; assay: Brain analyses at end of treatment, CNS-disseminated retinoblastoma; format: in vivo, mouse; details: end of treatment (FIG. 22G)
# E2F-1 and cyclin E1 = assay: Immunoblot of E2F-1 and cyclin E1 in neuroblastoma and Ewing sarcoma cells; format: cell-based; details: in vitro, up to 48 h with topotecan (FIG. 24C)
# retinoblastoma cells = format: cell-based; details: infection of retinoblastoma cells with VCN-01
# [10] = read-out: IC50, Topotecan single agent
# [11] = read-out: IC50, Topotecan with VCN-01 (10 MOI)
structure (smiles),measurement,setting,value
"CC[C@@]1(O)C(=O)OCc2c1cc1n(c2=O)Cc2cc3c(CN(C)C)c(O)ccc3nc2-1 [Topotecan, topotecan]",IC50,[1]; [10],0.00738 µM
same,IC50,[1]; [11],0.0507 µM
same,IC50,[2]; [10],0.0151 µM
same,IC50,[2]; [11],0.118 µM
same,IC50,[3]; [10],0.0296 µM
same,IC50,[3]; [11],0.126 µM
same,"antiproliferative activity, topotecan first",Y79 cells [4]; cells pre-exposed to topotecan before VCN-01 infection (FIG. 13D),sensitive to the antiproliferative activity of the drug
same,"antiproliferative activity, VCN-01 first",Y79 cells [4]; previous VCN-01 infection (FIG. 13D),partially abolished the activity of the drug
same,expression of VCN-01 proteins (E1a),"E1a [5]; 4 retinoblastoma models, VCN-01 50 MOI, drug added at 24 h, lysis at 48 h (FIG. 1)",enhanced expression of VCN-01 proteins
same,E1A expression in infected cells,"E1a [5]; VCN-01 infected cells treated with drug (FIG. 13B, FIG. 15A)",highly overexpressed
same,VCN-01 genome content in tumors,HSJD-RBT-7 tumors,increases VCN-01 genome content
same,number of E1A-positive cells,"E1A [6]; 5-day topotecan treatment, VCN-01-pretreated tumors, vs saline, […] or hydroxyurea (FIG. 18I)",highest number of E1A-positive cells
same,level of E1A protein expression,"E1A [6]; 5-day topotecan treatment, VCN-01-pretreated tumors, vs saline, […] or hydroxyurea (FIG. 18J)",highest level of E1A protein expression
same,VCN-01 activity (E1A) in tumors,"E1A [6]; systemic drug after intratumoral VCN-01, 5 or 15 days (FIGS. 4A-C)",enhances VCN-01 activity
same,"duration of E2F-1, p21 and cyclin E1 increase","E2F-1, p21 and cyclin E1; FIG. 17D",at least 48 h
same,"protein expression of E2F-1, p21 and cyclin E1","E2F-1, p21 and cyclin E1; Y79 cells (FIG. 17D)","increased protein expression of E2F-1, p21 and cyclin E1"
same,"onset of E2F-1, p21 and cyclin E1 increase","E2F-1, p21 and cyclin E1; after exposure (FIG. 17D)",1 h
same,E2F-1 expression in cancer cells,E2F-1,higher in the animals treated with topotecan
same,increase in expression of CDKN1A,CDKN1A,10 fold
same,viral production,Y79 cells [7],did not increase viral production
same,median survival,[8],28 days
same,expression of CDKN1A in brain homogenates,[9],highest expression of CDKN1A
same,expression of E2F-1 and cyclin E1,E2F-1 and cyclin E1,overexpression of E2F-1 and cyclin E1
same,cell sensitivity to drug after VCN-01 infection,retinoblastoma cells,decreased cell sensitivity
